Measured values as given in patent US12599136B2, “Substituted isophthalic acid diamides and their use as herbicides” (Bayer Aktiengesellschaft, priority 2020, dated 2026).

Experiments:
Format in all cases: in vivo
Abutilon theophrasti [1] = experiment: Pre-emergence herbicidal action against ABUTH; conditions: visual score after 3 weeks vs untreated controls
Summary of the method: (§1)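 Pre-emergence soil-surface spray of formulated compound (WP or EC; 600 to 800 l/ha; 0.2% wetting agent) over seeds sown in sandy loam. After 3 weeks under greenhouse conditions, damage is estimated visually in percent against untreated plants.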

Alopecurus myosuroides [2] = experiment: Pre-emergence herbicidal action against ALOMY; conditions: visual score after 3 weeks vs untreated controls
Summary of the method: as §1

Amaranthus retroflexus [3] = experiment: Pre-emergence herbicidal action against AMARE; conditions: visual score after 3 weeks vs untreated controls
Summary of the method: as §1

Avena fatua [4] = experiment: Pre-emergence herbicidal action against AVEFA; conditions: visual score after 3 weeks vs untreated controls
Summary of the method: as §1

Cyperus esculentus = experiment: Pre-emergence herbicidal action against CYPES; conditions: visual score after 3 weeks vs untreated controls
Excerpt: (§2) Seeds of monocotyledonous and dicotyledonous weed plants and crop plants are laid out in sandy loam soil in wood-fiber pots and covered with soil. The compounds of the invention, formulated in the form of wettable powders (WP) or as emulsion concentrates (EC), are then applied to the surface of the covering soil in the form of an aqueous suspension or emulsion at a water application rate equivalent to 600 to 800 l/ha, with addition of 0.2% wetting agent. After the treatment, the pots are placed in a greenhouse and kept under good growth conditions for the trial plants. The damage to the test plants is scored visually after a test period of 3 weeks by comparison with untreated controls (herbicidal activity in percent (%): 100% activity=the plants have died, 0% activity=like control plants). […] The tables below illustrate, in an illustrative manner, the post-emergence herbicidal action of the compounds of the invention, the herbicidal activity being stated in percent.

Echinochloa crus-galli [5] = experiment: Pre-emergence herbicidal action against ECHCG; conditions: visual score after 3 weeks vs untreated controls
Summary of the method: as §1

Matricaria inodora [6] = experiment: Pre-emergence herbicidal action against MATIN; conditions: visual score after 3 weeks vs untreated controls
Summary of the method: as §1

Hordeum murinum [7] = experiment: Pre-emergence herbicidal action against HORMU; conditions: 320 g/ha; visual score after 3 weeks vs untreated controls
Excerpt: as §2

Lolium rigidum = experiment: Pre-emergence herbicidal action against LOLRI; conditions: 320 g/ha
Summary of the method: as §1

Polygonum convolvulus = experiment: Pre-emergence herbicidal action against POLCO; conditions: 320 g/ha
Summary of the method: as §1

Setaria viridis [8] = experiment: Pre-emergence herbicidal action against SETVI
Summary of the method: as §1

Stellaria media [9] = experiment: Pre-emergence herbicidal action against STEME
Excerpt: as §2

Veronica persica [10] = experiment: Pre-emergence herbicidal action against VERPE; conditions: 320 g/ha
Summary of the method: as §1

Viola tricolor [11] = experiment: Pre-emergence herbicidal action against VIOTR
Summary of the method: as §1

Abutilon theophrasti [12] = experiment: Post-emergence herbicidal action against ABUTH
Summary of the method: (§3)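 Spray, one-leaf stage: WP or EC compound in water, 600–800 l/ha, 0.2% wetting agent. Plants held about 3 weeks in the greenhouse, then visually rated in percent of kill compared with untreated controls.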

Alopecurus myosuroides [13] = experiment: Post-emergence herbicidal action against ALOMY; conditions: 80 g/ha
Summary of the method: as §3

Amaranthus retroflexus [14] = experiment: Post-emergence herbicidal action against AMARE; conditions: visual assessment about 3 weeks after treatment
Summary of the method: as §3

Avena fatua [15] = experiment: Post-emergence herbicidal action against AVEFA; conditions: 80 g/ha, visual assessment about 3 weeks after treatment
Summary of the method: as §3

Echinochloa crus-galli [16] = experiment: Post-emergence herbicidal action against ECHCG; conditions: visual assessment about 3 weeks after treatment
Summary of the method: as §3

Matricaria inodora [17] = experiment: Post-emergence herbicidal action against MATIN; conditions: 80 g/ha, visual assessment about 3 weeks after treatment
Summary of the method: as §3

Pharbitis purpurea = experiment: Post-emergence herbicidal action against PHBPU; conditions: visual assessment about 3 weeks after treatment
Summary of the method: as §3

Hordeum murinum [18] = experiment: Post-emergence herbicidal action against HORMU; conditions: 80 g/ha
Procedure: (§4) Seeds of monocotyledonous and dicotyledonous weed and crop plants are laid out in sandy loam soil in wood-fiber pots, covered with soil and cultivated in a greenhouse under good growth conditions. 2 to 3 weeks after sowing, the test plants are treated at the one-leaf stage. The compounds of the invention, formulated in the form of wettable powders (WP) or as emulsion concentrates (EC), are then sprayed onto the green parts of the plants in the form of an aqueous suspension or emulsion at a water application rate equivalent to 600 to 800 l/ha, with addition of 0.2% wetting agent. After the test plants have been left to stand in the greenhouse under optimal growth conditions for about 3 weeks, the action of the preparations is assessed visually in comparison to untreated controls (herbicidal action in percent (%): 100% activity=the plants have died, 0% activity=like control plants). […] The tables below illustrate, in an illustrative manner, the post-emergence herbicidal action of the compounds of the invention, the herbicidal activity being stated in percent.

Setaria viridis [19] = experiment: Post-emergence herbicidal action against SETVI; conditions: 80 g/ha, visual assessment about 3 weeks after treatment
Summary of the method: as §3

Stellaria media [20] = experiment: Post-emergence herbicidal action against STEME; conditions: visual assessment about 3 weeks after treatment
Procedure: as §4

Veronica persica [21] = experiment: Post-emergence herbicidal action against VERPE; conditions: visual assessment about 3 weeks after treatment
Summary of the method: as §3

Viola tricolor [22] = experiment: Post-emergence herbicidal action against VIOTR; conditions: 80 g/ha
Summary of the method: as §3

## CN(C(=O)c1c(Cl)ccc(C(=O)Nc2nnnn2C)c1Cl)c1ccccc1 [Example 1-398]
Abutilon theophrasti [1]; 20 g/ha
  Pre-emergence action against ABUTH: 100%
Abutilon theophrasti [1]; 80 g/ha
  Pre-emergence action against ABUTH: 100%
Abutilon theophrasti [1]; Dosage column 320 g/ha (heading prints 3200 g/ha)
  Pre-emergence action against ABUTH: 100%
Alopecurus myosuroides [2]; 20 g/ha
  Pre-emergence action against ALOMY: 80%
Alopecurus myosuroides [2]; 80 g/ha
  Pre-emergence action against ALOMY: 100%
Alopecurus myosuroides [2]; 320 g/ha
  Pre-emergence action against ALOMY: 100%
Amaranthus retroflexus [3]; 20 g/ha
  Pre-emergence action against AMARE: 90%
Amaranthus retroflexus [3]; 80 g/ha
  Pre-emergence action against AMARE: 100%
Amaranthus retroflexus [3]; 320 g/ha
  Pre-emergence action against AMARE: 100%
Avena fatua [4]; 80 g/ha
  Pre-emergence action against AVEFA: 80%
Avena fatua [4]; 320 g/ha
  Pre-emergence action against AVEFA: 90%
Cyperus esculentus; 80 g/ha
  Pre-emergence action against CYPES: 80%
Cyperus esculentus; 320 g/ha
  Pre-emergence action against CYPES: 90%
Echinochloa crus-galli [5]; 80 g/ha
  Pre-emergence action against ECHCG: 80%
Echinochloa crus-galli [5]; 320 g/ha
  Pre-emergence action against ECHCG: 100%
Matricaria inodora [6]; 20 g/ha
  Pre-emergence action against MATIN: 90%
Matricaria inodora [6]; 80 g/ha
  Pre-emergence action against MATIN: 100%
Matricaria inodora [6]; 320 g/ha
  Pre-emergence action against MATIN: 100%
Hordeum murinum [7]
  Pre-emergence action against HORMU: 100%
Lolium rigidum
  Pre-emergence action against LOLRI: 90%
Polygonum convolvulus
  Pre-emergence action against POLCO: 100%
Setaria viridis [8]; 80 g/ha
  Pre-emergence action against SETVI: 100%
Setaria viridis [8]; 320 g/ha
  Pre-emergence action against SETVI: 100%
Stellaria media [9]; 20 g/ha
  Pre-emergence action against STEME: 90%
Stellaria media [9]; 80 g/ha
  Pre-emergence action against STEME: 100%
Stellaria media [9]; 320 g/ha
  Pre-emergence action against STEME: 100%
Veronica persica [10]
  Pre-emergence action against VERPE: 100%
Viola tricolor [11]; 80 g/ha
  Pre-emergence action against VIOTR: 80%
Viola tricolor [11]; 320 g/ha
  Pre-emergence action against VIOTR: 100%
Abutilon theophrasti [12]; 20 g/ha
  Post-emergence action against ABUTH: 100%
Abutilon theophrasti [12]; 80 g/ha
  Post-emergence action against ABUTH: 100%
Alopecurus myosuroides [13]
  Post-emergence action against ALOMY: 100%
Amaranthus retroflexus [14]; 5 g/ha
  Post-emergence action against AMARE in %: 80%
Amaranthus retroflexus [14]; 20 g/ha
  Post-emergence action against AMARE in %: 100%
Amaranthus retroflexus [14]; 80 g/ha
  Post-emergence action against AMARE in %: 100%
Avena fatua [15]
  Post-emergence action against AVEFA in %: 80%
Echinochloa crus-galli [16]; 20 g/ha
  Post-emergence action against ECHCG in %: 100%
Echinochloa crus-galli [16]; 80 g/ha
  Post-emergence action against ECHCG in %: 100%
Matricaria inodora [17]
  Post-emergence action against MATIN in %: 90%
Pharbitis purpurea; 20 g/ha
  Post-emergence action against PHBPU in %: 80%
Pharbitis purpurea; 80 g/ha
  Post-emergence action against PHBPU in %: 80%
Hordeum murinum [18]
  Post-emergence action against HORMU in %: 80%
Setaria viridis [19]
  Post-emergence action against SETVI in %: 100%
Stellaria media [20]; 5 g/ha
  Post-emergence action against STEME in %: 80%
Stellaria media [20]; 20 g/ha
  Post-emergence action against STEME in %: 90%
Stellaria media [20]; 80 g/ha
  Post-emergence action against STEME in %: 100%
Veronica persica [21]; 20 g/ha
  Post-emergence action against VERPE in %: 80%
Veronica persica [21]; 80 g/ha
  Post-emergence action against VERPE in %: 90%
Viola tricolor [22]
  Post-emergence action against VIOTR in %: 90%
